Measurements reported in publication PMC5554537 (Frontiers in Pharmacology, 2017).
Where two headings read alike, the source gives them in different places.

Key:
[1] = set-up: method as in Anderson et al., 2014; conditions: ref Anderson et al., 2014; cited from earlier work
[2] = Redox cycling: non-respiratory O2 consumption and H2O2 generation; assay type: cell-based; conditions: Chinese hamster; CHO/POR cells, 600 µM single bolus; read-out: Cell viability by trypan blue at end of exposure
Method: The Chinese hamster ovary cell line 51D1.3 (herein called CHO) and a stable transfectant expressing a soluble form of human P450 oxidoreductase (51D1.3/sPOR, herein called CHO/POR) ([Gu et al., 2009]), were grown in spinner flasks in αMEM plus 5% fetal bovine serum. Late log phase cultures were harvested by centrifugation, resuspended at 5 × 10^5 cells/mL in phenol red-free high-glucose DMEM (Invitrogen) supplemented with 4 mM Glutamax-1, 1 mM sodium pyruvate and 5% FBS. Stirred cell suspensions (2 mL) were transferred to an OXYBOROS O2K oxygraph for simultaneous polarographic measurement of non-respiratory O2 consumption and fluorimetric measurement of H2O2 generation as previously ([Hunter et al., 2012]). Bovine liver superoxide dismutase (10 U), horseradish peroxidase (10 U), Amplex UltraRed (50 nmol) and rotenone (1 nmol), all from Molecular Probes Invitrogen (Eugene, OR), were injected and cumulative drug additions (from saline stock solutions) were made every ∼5 min once endogenous rates had stabilized. Signals were recorded every 2 s, and flux derivatives were estimated ∼2 min after each addition using a Savitzky–Golay smoothing filter (40 data point window) in DATLAB version 4.3.
Supplementary Figure 4. Time-dependent changes in oxy gen consu mption and H2O2 formation rates induced by SN30000 in rotenone-inhibited CHO/POR cell suspensions, monitored with an OXYBOROS O2K oxygraph. Conditions of the experiment were identical to Fig. 5 except that SN30000 was added as a single bolus to separate cell suspension, rather than by cu mulative addition. A: Representative traces for oxygen consu mption and H2O2 formation rates for a single culture when SN30000 was added to a final concentration of 600 µM, at 4 min. Peak rates were established within 2 min, followed by a decline to a new steady state at approximately 1/3rd of the maximu m rate. Cell viability was > 97% by try pan […]
killing. […]

[3] = tested on: Wistar rats; assay: Rectal temperature and MTD in rats; assay type: in vivo; conditions: single i.v. dose of 90 mg/kg, preliminary
[4] = tested on: NIH-III mice; set-up: method as in Gu et al., 2014; conditions: ref Gu et al., 2014, cited from earlier work; for Survival: 14 days
[5] = tested on: HT29 tumor cells; set-up: method as in Hicks et al., 2010; conditions: stirred suspensions of HT29 tumor cells; ref Hicks et al., 2010; cited from earlier work
[6] = tested on: NIH-III mice
Description: SUPPLEMTENTAL TABLE 7. Mouse toxicity of SN30000 and M14: Histopathology […]
Male and female NIH-III mice aged 6-10 weeks were given a single i.p. dose of SN30000 (186, 248 […]
untreated control for each sex, fixed in 10% neutral buffered formalin at room temperature for 24-48 hr, transferred to 70% ethanol and subsequently paraffin embedded, sectioned and H&E stained for light microscopy . The following tissues/organs were examined: skin, testes, eyeball, brain, liver, lung, stomach, duodenum, heart, spleen, pancreas, colon, femur and joint (incl marrow), skeletal muscle (psoas) and kidney. Results are reported only for positive findings.

[7] = plasma
Method: SN30000, M14 and M18 dosing solutions were prepared fresh in normal saline, filtered through 0.45 μm Acrodisc filters (Pall Life Sciences, Port Washington, NY, United States), protected from light in amber vials, and used within 3 h. Doses are expressed as mg of free base equivalent for SN30000 and M14, and free acid in the case of M18. […] For evaluation of acute toxicity, mice were observed continuously for 3 h after dosing, and their activity rated on a lethargy score from 0 representing no change in activity to 5 representing animals that were moribund and required culling. For MTD studies, the animals were checked daily for clinical signs of toxicity and body weight change for 2 weeks. In some studies rectal temperature changes after dosing were measured using a BAT-12 digital microprobe thermometer (Physitemp Instruments, Clifton, NJ, United States) at the times specified in the figures. Blood samples were collected from mice at various times by cardiac puncture, seconds after cervical dislocation, into ice-cold tubes containing K2EDTA. These were placed on ice immediately after collection and centrifuged (3,000 g, 3 min) within 10 min to harvest plasma. Plasma and tissues were rapidly frozen in liquid nitrogen before storage at -80°C for subsequent bioanalysis.
Concentration-time data were analyzed by non-compartmental analysis using Phoenix WinNonlin (ver 6.4, Build 6.4.0768 Pharsight, United States); all AUC values were extrapolated to infinity using the linear trapezoidal rule. A compartmental model for plasma PK after dosing with SN30000 or M14 was fitted using Phoenix NLME v1.3 with random effects on the metabolite volumes of distribution, and temperature effects based on the observed body temperature at the last measurement time. Temperature effects were added or removed until there was no significant change in the log likelihood. Model fits were further assessed by visual inspection of the residuals and predicted PK.

[O-][n+]1nc(CCCN2CCOCC2)nc2cc3c(cc21)CCC3 [M14]
One-electron reduction potential, lower than SN30000 by [1]: 70 mV

[O-][n+]1nc(CCCN2CCOCC2)[n+]([O-])c2cc3c(cc21)CCC3 [SN30000, 3-(3-Morpholinopropyl)-7,8-dihydro-6H-indeno[5,6-e][1,2,4]triazine 1,4-dioxide]
viability at 600 µM [2]: > 97%
Decrease in rectal temperature [3]: ~2.5 °C
Survival ([4]; female, 562 µmol/kg i.p.): 6/6
Body weight nadir, Day ([4]; female, 562 µmol/kg i.p.): 1
Body weight nadir, Weight loss ([4]; female, 562 µmol/kg i.p.): 8.4 ± 1.7%
Survival ([4]; female, 750 µmol/kg i.p.): 1/2
Body weight nadir, Day ([4]; female, 750 µmol/kg i.p.): 2
Body weight nadir, Weight loss ([4]; female, 750 µmol/kg i.p.): 14.4%
Survival ([4]; female, 1000 µmol/kg i.p.): 0/1
Survival ([4]; male, 562 µmol/kg i.p.): 7/7
Body weight nadir, Day ([4]; male, 562 µmol/kg i.p.): 1
Body weight nadir, Weight loss ([4]; male, 562 µmol/kg i.p.): 4.2 ± 1.2%
Survival ([4]; male, 750 µmol/kg i.p.): 2/3
Body weight nadir, Day ([4]; male, 750 µmol/kg i.p.): 1
Body weight nadir, Weight loss ([4]; male, 750 µmol/kg i.p.): 12.1 ± 3.8%
Survival ([4]; male, 1000 µmol/kg i.p.): 1/2
Body weight nadir, Day ([4]; male, 1000 µmol/kg i.p.): 1
Body weight nadir, Weight loss ([4]; male, 1000 µmol/kg i.p.): 13.3%
Survival ([4]; male, 1333 µmol/kg i.p.): 1/2
Body weight nadir, Day ([4]; male, 1333 µmol/kg i.p.): 1
Body weight nadir, Weight loss ([4]; male, 1333 µmol/kg i.p.): 11.6%
O2 in solution for 50% inhibition of cytotoxicity [5]: 1.14 ± 0.24 µM
Histopathology findings, Kidney ([6]; 186 mg/kg i.p., female, 3 examined): Basophilic cortical tubules (2); karyomegaly in tubular epithelium (3); tubular epithelial necrosis (3)
Histopathology findings, Kidney ([6]; 248 mg/kg i.p., female, 2 examined): Basophilic cortical tubules (2); karyomegaly in tubular epithelium (2); tubular epithelial necrosis (2)
Histopathology findings, Testes ([6]; 248 mg/kg i.p., male, 1 examined): Degeneration of germinal epithelium (1)
Histopathology findings, Kidney ([6]; 248 mg/kg i.p., male, 2 examined): Basophilic cortical tubules (1); karyomegaly in tubular epithelium (1); tubular epithelial necrosis (1)
Histopathology findings, Kidney ([6]; 331 mg/kg i.p., male, 1 examined): Basophilic cortical tubules (1); karyomegaly in tubular epithelium (1); tubular epithelial necrosis (1)
Apparent Cl ([7]; i.p. SN30000 1.86 mg/kg): 553 mL/min/kg
Apparent Cl ([7]; i.p. SN30000 18.6 mg/kg): 447 mL/min/kg
Apparent Cl ([7]; i.p. SN30000 78.3 mg/kg): 126 mL/min/kg
Apparent Cl ([7]; i.p. SN30000 92.8 mg/kg): 95 mL/min/kg
Apparent Cl ([7]; i.p. SN30000 186 mg/kg): 59.2 mL/min/kg
